How the values were obtained:
[1] = Fluorescent quantum yield (QY) measurements; type: physicochemical; settings: for Fluorescence QY: ACN/PBS buffer (1:1 v/v); for Fluorescence quantum yield / QY: in ACN
In short: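 Fluorescence quantum yield was measured for each dye by first recording the incident excitation light spectrum with 1 mL of solvent. JASCO Quantum Yield Software then computed QY as the dye's fluorescence intensity divided by the drop in incident light intensity between dye-absent and dye-present samples. A full incident excitation spectrum with this setup needs an excitation wavelength of at least 360 nm.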

[2] = Solvatochromic measurements; type: physicochemical; settings: organic solvents of different polarity
Procedure: The remaining 850 μL solution was used to obtain fluorescence images under a handheld 365 nm UV lamp.
Solvatochromic measurements. […] The remaining 850 μL solution was used to obtain fluorescence images under a handheld 365 nm UV lamp.

[3] = test system: αS fibrils versus tau fibrils; assay: Amyloid selectivity by plate reader, αS versus tau fibrils; type: binding; parameters: fluorescence turn-on with αS relative to tau: dose or concentration left out as unconfirmed; settings: for fluorescence turn on with αS relative to tau: 5 μM fibril concentrations, probe 1 μM
Procedure: Experiments were performed on the Tecan Spark in Greiner 96 well flat black ½ area plates using the following parameters: excitation and emission band widths 5 nm, lag time 0 μs, integration time 40 μs. A 10 mM DMSO stock solution of probes (7j-7m) and 100 μM stock of αS fibrils were used in the study described herein.

[4] = Fluorescence (emission) measurements; type: physicochemical; settings: for Emission λem: Table S12; for maximum emission wavelength (λem): 50:50 ACN/PBS, excitation at λabs;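 on all read-outs here: fluorescence emission spectra recorded on a spectrofluorometer, with each compound excited at its own absorption maximum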
Procedure: The fluorescence spectrum of each derivative (150 μL) was measured on a Photon Technology International (PTI) QuantaMaster™ 40 fluorescence spectrometer by excitation at the maximum absorption wavelength for each compound.
The fluorescence spectrum of each derivative (150 μL) was measured on a Photon Technology International (PTJ) QuantaMaster™ 40 fluorescence spectrometer by excitation at the maximum absorption wavelength for each compound.

αS fibrils [5] = target: T1, αS fibrils (Homo sapiens, UniProt P37840); assay: Probe binding (Kd) measurements with αS fibrils; settings: 100 μM αS PFFs; probe 10 nM-10 μM
T1 construct: intein-His6 (C, cleaved yes); made in house; host or cells: Escherichia coli BL21
Procedure: (§1) αS fibrils (100 μM) in PBS buffer were incubated with varying 7k, 7l, and 7m concentrations (0, 0.01, 0.1, 0.5, 1, 3, 5, 7, and 10 μM) from concentrated 10 mM DMSO stock solutions in Greiner 96 well flat black […] plates at 37° C. with shaking at 500 rpm for 15 min in an IKA MS3 control orbital shaker (Wilmington, NC, USA). After 15 min incubation, fluorescence intensity measurements were obtained with a Tecan Spark plate reader (Mannedorf, Switzerland) by excitation with λex/λem=424/570 nm for 7k, λex/λem=463/580 nm for 7l, and λex/λem=484/620 nm for 7m, using the following parameters: excitation and emission bandwidth 5 nm, delay time 0 μs, integration time 40 μs. Averages and standard deviations were calculated from at least 3 independent measurements at each probe concentration. The resulting binding curve was fit to the following equation (modified from the One site—Total, accounting for ligand depletion model) in Graphpad Prism 9 (San Diego, CA, USA), from which the Kd was determined.
Fluorescence Spectra with αS Fibrils
as §1, with “5k” for “7k, 7l, and 7m”, “with” for “with λex/λem=424/570 nm for 7k,”, “5k,” for “7l, and λex/λem=484/620 nm for 7m,”

αS fibrils [6] = target: T1, αS fibrils; assay: Fluorescence lifetime measurements of probes with αS fibrils; type: physicochemical; settings: for Fluorescence Lifetime: 100 μM dye and PFFs; for Lifetime: with αS fibrils in PBS buffer, probe and αS fibrils 100 μM; for fluorescence lifetime when bound to PFFs: 100 μM αS PFFs
Procedure: TCSPC measurements of fluorescence lifetime decays for 100 μM dyes in the presence of 100 μM αS fibrils were collected with the PTI Quantamaster™ 40 using a pulsed LED with a maximum emission at 486 nm. Fluorescence emission was collected at the indicated wavelength for each dye with 20 nm slit widths. The IRF was collected under identical conditions. Data analysis was performed with FluoFit software using an exponential decay model.

αS fibrils [7] = target: T1, αS fibrils; assay: Excitation spectra with αS fibrils; type: physicochemical; settings: dye 10 μM; for λex: presence of αS PFFs, PFF 50 μM; for λex, maximum excitation wavelength: presence of αS PFFs (+), PFFs 50 μM, represents the bound form of dye
Procedure: Excitation spectral measurements were performed using a PTI QuantaMaster™ 40 fluorescence spectrometer. Excitation spectra of 10 μM probes (concentrated stock solution prepared as 10 mM in DMSO) (7j, 7k, 7l, and 7m) in PBS buffer were measured in the absence and presence of 50 μM αS fibrils (stock solution 100 μM αS fibrils in PBS buffer).
Excitation spectra with αS fibrils. Excitation spectral measurements were performed using a PTI QuantaMaster 40 fluorescence spectrometer. Excitation spectra of 10 μM probes (concentrated stock solution prepared as 10 mM in DMSO) (5j and 5k) in PBS buffer were measured in the absence and presence of 50 μM αS fibrils (stock solution 100 μM αS fibrils in PBS buffer).

[8] = 25 μM in ACN/PBS buffer (1:1 v/v), pH 7.4

Fluorescence QY [1] | Fluorescence quantum yield [1] | QY [1] | emission span across solvents (solvatochromism) [2] | Emission λmax ([4]; 25 μM in ACN) | Emission λmax [4, 8] | Stokes shift ([4]; ACN/PBS buffer (1:1 v/v)) | Stokes shift ([4]; in ACN) | Kd (αS fibrils [5]) | Fluorescence Lifetime (αS fibrils [6]; presence of αS PFFs) | Lifetime (αS fibrils [6]) | λex (αS fibrils [7]) | Fluorescence quantum yield ([1]; Table S12) | solvatochromism / environmental sensitivity [2] | Emission λem ([4]; 25 μM in ACN) | maximum emission wavelength (λem) [4] | fluorescence lifetime when bound to PFFs (αS fibrils [6]) | Fluorescence Lifetime (αS fibrils [6]; presence of αS PFFs (+)) | λex, maximum excitation wavelength (αS fibrils [7]) | Structure (SMILES) | fluorescence turn on with αS relative to tau [3] | also measured
1.0% | 6.9% | about 7% | 490-590 nm | 565 nm | 603 nm | 217 nm | 187 nm | 2450 ± 1240 nM | 2.09 ns | 2.09 ± 0.01 ns | 424 nm | – | – | – | – | – | – | – | Cc1c(C)n2c(/C=C/c3ccc(N4CCOCC4)cc3)c(C)c(=O)n2c1=O [Compound 7k, (E)-2,3,6-trimethyl-5-(4-morpholinostyryl)-1H,7H-pyrazolo[1,2-a]pyrazole-1,7-dione] | 2 fold | –
0.7% | 1.5% | 2% | – | 540 nm | 583 nm | 198 nm | 162 nm | – | 1.90 ns | 1.90 ± 0.01 ns | 435 nm | 1.5% | showed sensitivity to solvent polarity | 540 nm | 583 nm | 1.90 ns | 1.90 ns | 435 nm | Cc1c(C)n2c(/C=C/c3ccc(N)cc3)c(C)c(=O)n2c1=O [Compound 7j, (E)-3-(4-aminostyryl)-2,5,6-trimethyl-1H,7H-pyrazolo[1,2-a]pyrazole-1,7-dione] | – | –
0.6% | 13.5% | 14% | – | 620 nm | 640 nm | 204 nm | 210 nm | 420 ± 250 nM | 1.27 ns | 1.27 ± 0.01 ns | 484 nm | – | high levels of solvatochromism | – | 640 nm | – | – | – | Cc1c(C)n2c(/C=C/C=C/c3ccc(N(C)C)cc3)c(C)c(=O)n2c1=O [Compound 7m, 3-((1E,3E)-4-(4-(dimethylamino)phenyl)buta-1,3-dien-1-yl)-2,5,6-trimethyl-1H,7H-pyrazolo[1,2-a]pyrazole-1,7-dione] | 9 fold | Stokes shift ([4]; ACN/PBS): 204 nm
0.5% | 7.5% | about 7% | 490-590 nm | 568 nm | 604 nm | 186 nm | 166 nm | 1450 ± 430 nM | 2.27 ns | 2.27 ± 0.01 ns | 463 nm | 7.5% | high level of solvatochromism | 568 nm | 604 nm | 2.27 ns | 2.27 ns | 463 nm | Cc1c(C)n2c(/C=C/c3ccc(N(C)C)cc3)c(C)c(=O)n2c1=O [Compound 7l, (E)-3-(4-(dimethylamino)styryl)-2,5,6-trimethyl-1H,7H-pyrazolo[1,2-a]pyrazole-1,7-dione] | 2 fold | QY ([1]; listed as 5k): 7.5%; fluorescence turn-on with αS relative to tau [3]: 2.8 fold
